Laboratory results taken from ChEMBL document CHEMBL1933028, “Discovery of cyclic amine-substituted benzoic acids as PPARα agonists” (Bioorg Med Chem Lett, 2012).

Key:
Format in all cases: cell-based
[1] = target: T1, Peroxisome proliferator-activated receptor gamma (Homo sapiens, UniProt P37231); experiment: Transactivation of human PPARgamma expressed in CHO-K1 cells
T1 sequence (P37231 whole entry): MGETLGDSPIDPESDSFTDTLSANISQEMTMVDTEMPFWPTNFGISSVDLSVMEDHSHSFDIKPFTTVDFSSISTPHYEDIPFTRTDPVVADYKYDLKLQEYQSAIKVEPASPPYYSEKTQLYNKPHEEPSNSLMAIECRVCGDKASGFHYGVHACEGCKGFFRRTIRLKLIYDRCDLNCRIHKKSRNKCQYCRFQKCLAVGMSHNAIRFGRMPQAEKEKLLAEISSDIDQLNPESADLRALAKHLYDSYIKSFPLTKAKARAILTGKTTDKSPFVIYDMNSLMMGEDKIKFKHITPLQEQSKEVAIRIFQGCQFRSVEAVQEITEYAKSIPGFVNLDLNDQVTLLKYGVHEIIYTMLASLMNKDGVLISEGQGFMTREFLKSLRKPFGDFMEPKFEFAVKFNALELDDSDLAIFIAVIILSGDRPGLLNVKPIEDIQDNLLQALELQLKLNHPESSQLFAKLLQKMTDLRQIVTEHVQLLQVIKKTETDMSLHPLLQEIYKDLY

[2] = target: T2, Peroxisome proliferator-activated receptor delta (Homo sapiens, UniProt Q03181); experiment: Transactivation of human PPARdelta expressed in CHO-K1 cells
T2 sequence (Q03181 whole entry): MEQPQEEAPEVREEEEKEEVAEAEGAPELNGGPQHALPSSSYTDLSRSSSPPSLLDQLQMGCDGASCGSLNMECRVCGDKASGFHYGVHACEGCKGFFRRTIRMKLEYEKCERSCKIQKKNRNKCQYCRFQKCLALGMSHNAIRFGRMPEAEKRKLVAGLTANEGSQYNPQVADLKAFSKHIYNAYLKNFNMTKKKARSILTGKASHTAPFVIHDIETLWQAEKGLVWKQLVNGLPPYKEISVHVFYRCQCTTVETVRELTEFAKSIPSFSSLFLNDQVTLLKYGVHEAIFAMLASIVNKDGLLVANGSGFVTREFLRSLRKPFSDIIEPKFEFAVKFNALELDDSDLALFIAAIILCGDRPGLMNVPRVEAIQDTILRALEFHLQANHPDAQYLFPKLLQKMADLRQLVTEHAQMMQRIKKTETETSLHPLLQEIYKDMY

[3] = target: T3, Peroxisome proliferator-activated receptor alpha (Homo sapiens, UniProt Q07869); experiment: Transactivation of human PPARalpha expressed in CHO-K1 cells
T3 sequence (Q07869 whole entry): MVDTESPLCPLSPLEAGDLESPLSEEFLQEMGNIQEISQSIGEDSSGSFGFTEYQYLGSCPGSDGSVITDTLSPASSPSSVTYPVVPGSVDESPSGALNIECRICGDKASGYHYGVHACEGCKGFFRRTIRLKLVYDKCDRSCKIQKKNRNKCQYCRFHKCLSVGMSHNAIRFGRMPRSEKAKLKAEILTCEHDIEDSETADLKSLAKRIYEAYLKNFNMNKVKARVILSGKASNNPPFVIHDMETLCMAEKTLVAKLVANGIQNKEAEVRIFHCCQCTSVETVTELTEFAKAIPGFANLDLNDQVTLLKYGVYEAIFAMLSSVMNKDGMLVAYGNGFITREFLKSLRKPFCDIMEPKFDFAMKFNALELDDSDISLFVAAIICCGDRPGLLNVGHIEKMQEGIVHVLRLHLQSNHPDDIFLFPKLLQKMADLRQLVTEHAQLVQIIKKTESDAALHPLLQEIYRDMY

[4] = target: T2, Peroxisome proliferator-activated receptor delta; experiment: Transactivation of human PPARdelta expressed in CHO-K1 cells at 30 uM

Row | EC50 [1] [nM] | EC50 [2] [nM] | EC50 [3] [nM] | EC50 [4] | Compound
1 | 5900 | 470 | 700 |  | COc1ccc(-c2cccc(C(=O)O)c2)cc1CNC(=O)c1ccc(Oc2ccccc2)cc1
2 |  |  | 4400 |  | O=C(O)c1cccc(N2CCCC(CNC(=O)c3ccc(Oc4ccc(F)cc4)cc3)C2)c1 (centres undefined)
3 | > 4900 |  | 760 | Not Active | Cc1nc(-c2ccc(Cl)cc2)sc1C(=O)NCC1CCCN(c2cccc(C(=O)O)c2)C1 (centres undefined)
4 |  |  | > 3500 |  | Cc1nc(-c2ccc(Cl)cc2)sc1C(=O)NCC1CCN(c2cccc(C(=O)O)c2)CC1
5 | > 10000 |  | 850 | Not Active | Cc1nc(-c2ccc(Cl)cc2)sc1C(=O)NCC1CCN(c2cccc(C(=O)O)c2)C1 (centres undefined)
6 |  |  | 700 |  | Cc1nc(-c2ccc(Cl)cc2)sc1C(=O)NCC1CCCCN(c2cccc(C(=O)O)c2)C1 (centres undefined)
7 | > 15000 | > 17000 | 810 |  | Cc1nc(-c2ccc(Cl)cc2)sc1C(=O)NCC1CN(c2cccc(C(=O)O)c2)CCO1 (centres undefined)
8 |  |  | > 14000 |  | Cc1nc(-c2ccc(Cl)cc2)sc1CNC(=O)C1CCCN(c2cccc(C(=O)O)c2)C1 (centres undefined)
9 |  |  | > 12000 |  | Cc1nc(-c2ccc(Cl)cc2)sc1CC(=O)NC1CCCN(c2cccc(C(=O)O)c2)C1 (centres undefined)
10 | > 10000 | > 4200 | 5 |  | Cc1nc(-c2ccc(Cl)cc2)sc1C(=O)NC1CCCN(c2cccc(C(=O)O)c2)C1 (centres undefined)
11 | > 13000 |  | 280 | Not Active | Cc1nc(-c2ccc(Cl)cc2)sc1NC(=O)C1CCCN(c2cccc(C(=O)O)c2)C1 (centres undefined)
12 |  |  | 3400 |  | Cc1nc(-c2ccc(Cl)cc2)sc1C(=O)N(C)C1CCCN(c2cccc(C(=O)O)c2)C1 (centres undefined)
13 | > 13000 | > 13000 | 2400 |  | Cc1nc(-c2ccc(Cl)cc2)sc1CNC1CCCN(c2cccc(C(=O)O)c2)C1 (centres undefined)
14 | > 9700 | > 6300 | 250 |  | Cc1nc(-c2ccc(Cl)cc2)sc1COC1CCCN(c2cccc(C(=O)O)c2)C1 (centres undefined)
15 | > 9800 | > 8100 | 120 |  | Cc1nc(-c2ccc(Cl)cc2)sc1/C=C/C1CCCN(c2cccc(C(=O)O)c2)C1 (centres undefined)
16 | > 6800 | > 6800 | 810 |  | Cc1nc(-c2ccc(Cl)cc2)sc1CCC1CCCN(c2cccc(C(=O)O)c2)C1 (centres undefined)
17 |  |  | > 6000 |  | Cc1nc(-c2ccc(Cl)cc2)sc1C(=O)NC1CCCN(c2ccccc2C(=O)O)C1 (centres undefined)
18 |  |  | 1500 |  | Cc1nc(-c2ccc(Cl)cc2)sc1C(=O)NC1CCCN(c2ccc(C(=O)O)cc2)C1 (centres undefined)
19 | > 10000 |  | 1200 | Not Active | Cc1nc(-c2ccc(Cl)cc2)sc1C(=O)N[C@@H]1CCCN(c2cccc(C(=O)O)c2)C1
20 |  |  | > 3400 |  | Cc1sc(-c2ccc(Cl)cc2)nc1C(=O)N[C@H]1CCCN(c2cccc(C(=O)O)c2)C1
21 | > 12000 | > 13000 | 1500 |  | Cc1nc(-c2ccc(Cl)cc2)oc1C(=O)N[C@H]1CCCN(c2cccc(C(=O)O)c2)C1
22 | > 19000 | 7100 | 72 |  | Cc1nc(-c2ccccc2)sc1C(=O)N[C@H]1CCCN(c2cccc(C(=O)O)c2)C1
23 | > 5200 | 2400 | 26 |  | Cc1nc(-c2cccc(Cl)c2)sc1C(=O)N[C@H]1CCCN(c2cccc(C(=O)O)c2)C1
24 | > 6800 | 1900 | 53 |  | Cc1nc(-c2ccccc2Cl)sc1C(=O)N[C@H]1CCCN(c2cccc(C(=O)O)c2)C1
25 | > 9800 | 8800 | 21 |  | Cc1nc(-c2ccc(F)cc2)sc1C(=O)N[C@H]1CCCN(c2cccc(C(=O)O)c2)C1
26 | > 11000 | 3100 | 6 |  | Cc1ccc(-c2nc(C)c(C(=O)N[C@H]3CCCN(c4cccc(C(=O)O)c4)C3)s2)cc1
27 | > 11000 | 1800 | 23 |  | COc1ccc(-c2nc(C)c(C(=O)N[C@H]3CCCN(c4cccc(C(=O)O)c4)C3)s2)cc1
28 | > 13000 | > 11000 | 37 |  | Cc1nc(-c2ccc([N+](=O)[O-])cc2)sc1C(=O)N[C@H]1CCCN(c2cccc(C(=O)O)c2)C1
29 | 2500 | 1920 | 13 |  | CC[C@@H](Cc1ccc(OC)c(C(=O)NCc2ccc(Oc3ccc(F)cc3)cc2)c1)C(=O)O
